Patent US20260206761A1, “HETEROARYL-TRIAZOLE COMPOUNDS AS PESTICIDES” (Bayer Aktiengesellschaft, priority 2019, published 2026)

Legend:
Type in all cases: in vivo
[1] = test system: Rhipicephalus microplus larvae (strain Parkhurst, resistant against synthetic pyrethroids); test: Rhipicephalus (Boophilus) microplus in-vitro contact test, larval cattle tick; details: after 48 hours, read-out: activity (efficacy: larvae dead or moribund); for pest or weed control at 100 g/ha: application rate 1 pg/cm^2 (=100 g/ha); for pest or weed control at 500 g/ha: application rate 5 pg/cm^2 (=500 g/ha)
In short: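 Acetone solutions coated onto inner walls of glass tubes by rotation (900 ppm giving 5 μg/cm^2); after evaporation, 20-50 larvae added per tube and held at 27° C., 85% relative humidity. Efficacy read after 48 h from negative geotactic behaviour; 100% = all larvae dead or moribund.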

[2] = test system: adult engorged female ticks (Rhipicephalus microplus); test: Rhipicephalus (Boophilus) microplus injection test; details: 168 h, egg deposition after 7 days, read-out: activity (efficacy: infertile eggs); for pest or weed control at 4 pg: application rate 4 pg/animal; for pest or weed control at 0.02 mg: application rate 20 μg/animal
In short: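 Efficacy is scored from egg fertility, with 100% meaning every egg infertile and 0% every egg fertile. Five engorged females per test received 1 μL DMSO solution abdominally. Eggs of unclear fertility were kept until hatching, about 42 days.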

[3] = test system: adult unfed cat fleas (Ctenocephalides felis); test: Ctenocephalides felis oral test; details: 48 h, read-out: activity (mortality)
Description: Ctenocephalides felis—Oral Test
Solvent: dimethyl sulfoxide
To produce a suitable preparation of active compound, 10 mg of active compound are dissolved in 0.5 mL solvent, and the concentrate is diluted with cattle blood to the desired concentration.
Approximately 20 adult unfed cat fleas (Ctenocephalides felis) are placed in flea chambers. The blood chamber, sealed with parafilm on the bottom, are filled with cattle blood supplied with compound solution and placed on the gauze covered top of the flea chamber, so that the fleas are able to suck the blood. The blood chamber is heated to 37° C. whereas the flea chamber is kept at room temperature.
After 2 days mortality in % is determined. 100% means all the fleas have been killed; 0% means none of the fleas have been killed.

[4] = test system: fall armyworm larvae (Spodoptera frugiperda); test: Spodoptera frugiperda spray test; details: 168 h, read-out: activity (mortality)
In short: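 Compound in acetone/DMF, diluted in water with 1000 ppm alkylarylpolyglycol ether emulsifier, sprayed on maize leaf sections. Dried leaves infested with fall armyworm larvae; % mortality after 7 days (100% = all killed, 0% = none).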

[5] = test system: green peach aphid (Myzus persicae); test: Myzus persicae oral test; details: 120 h, application rate 4 ppm, after 5 days
In short: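 Compound was dissolved at 1 part by weight in 100 parts acetone, then diluted with water to test concentration and combined with IPL41 insect medium (33%+15% sugar). A mixed aphid population fed on this through a parafilm seal, and mortality (%) was scored after 5 days.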

[6] = test system: larvae of the banded cucumber beetle (Diabrotica balteata); test: Diabrotica balteata spray test; details: 168 h, after 7 days, read-out: activity (efficacy: seedlings grown); for pest or weed control at 500 g/ha: application rate 500 g/ha (=160 pg/well); for pest or weed control at 100 g/ha: application rate 100 g/ha (=32 pg/well)
In short: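 Wheat seedlings, germinated 1 day on agar (5 seeds/well), sprayed with active compound in acetone/DMF diluted in water containing 1000 ppm emulsifier, then infested with 10-20 D. balteata larvae. Efficacy (%) scored after 7 days: 100% = seedlings grown as untreated uninfested control, 0% = no seedlings grown.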

[7] = test system: adult brown dog ticks (Rhipicephalus sanguineus); test: Rhipicephalus sanguineus in-vitro contact test, adult brown dog ticks; details: after 48 hours, read-out: activity (efficacy: ticks dead or moribund)
In short: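 Compound in acetone was coated onto inner walls of glass tubes by rotation (2 h, 30 rpm); 900 ppm gives 5 μg/cm^2. After drying, 5-10 adult ticks were enclosed per tube at room temperature; after 48 h, heat-escape test at 45-50° C scored dead/moribund ticks as % efficacy.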

[8] = test system: larvae of the southern green stink bug (Nezara viridula); test: Nezara viridula spray test; details: 96 h, after 4 days; for mortality at 500 g/ha: application rate 500 g/ha; for mortality at 100 g/ha: application rate 100 g/ha
Description: Nezara viridula—Spray Test
Solvent: 78.0 parts by weight of acetone • • 1.5 parts by weight of dimethylformamide
(§1) Emulsifier: alkylarylpolyglycol ether
To produce a suitable preparation of active compound, 1 part by weight of active compound is mixed with the stated amount of solvent, and the concentrate is diluted with water, containing an emulsifier concentration of 1000 ppm, to the desired concentration. Further test concentrations are prepared by dilution with emulsifier containing water.
Barley plants (Hordeum vulgare) infested with larvae of the southern green stink bug (Nezara viridula) are sprayed with a test solution containing the desired concentration of the active ingredient.
After 4 days mortality in % is determined. 100% means all the stink bugs have been killed; 0% means none of the stink bugs have been killed.

[9] = test system: green peach aphid (Myzus persicae); test: Myzus persicae spray test; details: 120 h, after 5 days; for mortality at 100 g/ha: application rate 100 g/ha
Description: Myzus persicae—Spray Test
Solvent: 78.0 parts by weight acetone • 1.5 parts by weight dimethylformamide
as §1
To produce a suitable preparation of active compound, 1 part by weight of active compound is mixed with the stated amount of solvents and is diluted with water, containing an emulsifier concentration of 1000 ppm, to the desired concentration. Further test concentrations are prepared by dilution with emulsifier containing water.
Chinese cabbage (Brassica pekinensis) leaf disks infected with all instars of the green peach aphid (Myzus persicae), are sprayed with a preparation of the active ingredient of the desired concentration.
After 5 days mortality in % is determined. 100% means all aphids have been killed and 0% means none of the aphids have been killed.

[10] = test system: Aedes aegypti strain MONHEIM; test: Aedes aegypti test (AEDSAE surface treatment & contact assay); details: 24 hours after contact, read-out: efficacy (mortality)
Description: Aedes aegypti Test (AEDSAE Surface Treatment & Contact Assay)
Solvent: Aceton+2000 ppm rapeseed oil methyl ester (RME)
In order to produce a sufficient, active ingredient containing solution it is necessary to solve the test compound in the solvent-mix (acetone at 2 mg/ml/RME 2000 ppm). This solution is pipetted onto a glazed tile and after evaporation of the acetone, adult mosquitoes of the species Aedes aegypti strain MONHEIM are placed onto the dried surface. The exposure time is 30 minutes. Mortality in percent (%) is determined 24 hours after contact of the insects to the treated surface. 100% mortality means that all tested insects are dead, whereas 0% means that no insect died.

## CC(NC(=O)c1cc(Cl)cc(S(C)(=O)=O)c1)c1nc(C(F)F)nn1-c1ccc(C#N)cn1 (stereo not drawn) [I-6]
[1]
  pest or weed control at 100 g/ha: 100%
  pest or weed control at 500 g/ha: 100%
[2]
  pest or weed control at 4 pg: 100%
  pest or weed control at 0.02 mg: 100%
[3]
  mortality at 100 ppm: 100%
[4]
  mortality at 100 g/ha: 83%
  mortality at 500 g/ha: 100%
[5]
  mortality at 4 ppm: 100%

## CCOc1nc([C@H](C)NC(=O)c2cc(Cl)cc(S(C)(=O)=O)c2)n(-c2ccc(C#N)cn2)n1 [I-9]
[1]
  pest or weed control at 100 g/ha: 100%
  pest or weed control at 500 g/ha: 100%
[6]
  pest or weed control at 500 g/ha: 100%
[2]
  pest or weed control at 4 pg: 100%
  pest or weed control at 0.02 mg: 100%
[3]
  mortality at 100 ppm: 100%
[4]
  mortality at 100 g/ha: 100%
  mortality at 500 g/ha: 100%
[5]
  mortality at 4 ppm: 100%

## CC(C)c1nc([C@H](C)NC(=O)c2cc(Cl)cc(S(C)(=O)=O)c2)n(-c2ccc(C#N)cn2)n1 [I-16]
[1]
  pest or weed control at 100 g/ha: 100%
  pest or weed control at 500 g/ha: 100%
[6]
  pest or weed control at 100 g/ha: 80%
[2]
  pest or weed control at 4 pg: 100%
  pest or weed control at 0.02 mg: 100%
[3]
  mortality at 100 ppm: 100%
[4]
  mortality at 100 g/ha: 100%
[5]
  mortality at 4 ppm: 100%
[7]; application rate 1 pg/cm^2 (=100 g/ha)
  pest or weed control at 100 g/ha: 100%
[7]; application rate 5 μg/cm^2 (=500 g/ha)
  pest or weed control at 5 µg/cm2, 500 g/ha: 100%

## C[C@H](NC(=O)c1cc(Cl)cc(S(=O)(=O)CC(F)(F)F)c1)c1nc(C2CC2)nn1-c1ncc(Cl)cn1 [I-26]
[1]
  pest or weed control at 100 g/ha: 90%
  pest or weed control at 500 g/ha: 90%
[6]
  pest or weed control at 100 g/ha: 100%
[2]
  pest or weed control at 4 pg: 100%
  pest or weed control at 0.02 mg: 100%
[3]
  mortality at 100 ppm: 100%
[5]
  mortality at 4 ppm: 90%

## CC(NC(=O)c1cc(Cl)cc(S(C)(=O)=O)c1)c1nc(Br)nn1-c1ccc(Cl)cn1 (stereo not drawn) [I-28]
[1]
  pest or weed control at 100 g/ha: 100%
  pest or weed control at 500 g/ha: 100%
[6]
  pest or weed control at 100 g/ha: 100%
  pest or weed control at 500 g/ha: 100%
[2]
  pest or weed control at 4 pg: 100%
  pest or weed control at 0.02 mg: 100%
[3]
  mortality at 100 ppm: 100%
[4]
  mortality at 100 g/ha: 100%
  mortality at 500 g/ha: 100%
[5]
  mortality at 4 ppm: 90%
[8]
  mortality at 500 g/ha: 100%

## CC(NC(=O)c1cc(Cl)cc(S(C)(=O)=O)c1)c1nc(I)nn1-c1ncccn1 (stereo not drawn) [I-41]
[6]
  pest or weed control at 100 g/ha: 100%
[5]
  mortality at 4 ppm: 100%
[8]
  mortality at 100 g/ha: 100%
[9]
  mortality at 100 g/ha: 100%

## CC(NC(=O)c1cc(Br)cc(C2(C(F)(F)F)CC2)c1)c1nc(Cl)nn1-c1ncccn1 (stereo not drawn) [I-47]
[1]
  pest or weed control at 100 g/ha: 90%
  pest or weed control at 500 g/ha: 90%
[6]
  pest or weed control at 100 g/ha: 100%
[2]
  pest or weed control at 4 pg: 100%
  pest or weed control at 0.02 mg: 100%
[3]
  mortality at 100 ppm: 80%
[4]
  mortality at 100 g/ha: 100%
[5]
  mortality at 4 ppm: 100%
[10]; surface concentration 4 mg/m^2, exposure 30 minutes
  mortality at 4 mg/m2: 80 to 100%
[10]; surface concentration 20 mg/m^2, exposure 30 minutes
  mortality at 20 mg/m2: 80 to 100%

## CC(NC(=O)c1cc(Br)cc(C2(C(F)(F)F)CC2)c1)c1nc(Br)nn1-c1ncccn1 (stereo not drawn) [I-48]
[1]
  pest or weed control at 100 g/ha: 90%
  pest or weed control at 500 g/ha: 90%
[2]
  pest or weed control at 4 pg: 100%
[3]
  mortality at 100 ppm: 100%
[4]
  mortality at 100 g/ha: 100%
[5]
  mortality at 4 ppm: 100%

## C[C@H](NC(=O)c1cc(F)cc(S(C)(=O)=O)c1)c1nc(C2CC2)nn1-c1ccc(C#N)cn1 [I-63]
[6]
  pest or weed control at 100 g/ha: 100%
[4]
  mortality at 100 g/ha: 100%
[5]
  mortality at 4 ppm: 100%
[8]
  mortality at 100 g/ha: 100%
[9]
  mortality at 100 g/ha: 90%

## C[C@H](NC(=O)c1cc(F)cc(S(C)(=O)=O)c1)c1nc(C2CC2)nn1-c1ncc(Cl)cn1 [I-66]
[6]
  pest or weed control at 100 g/ha: 100%
[4]
  mortality at 100 g/ha: 100%
[5]
  mortality at 4 ppm: 100%
[8]
  mortality at 100 g/ha: 100%
  mortality at 500 g/ha: 100%
[9]
  mortality at 100 g/ha: 100%
[9]; application rate 500 g/ha
  mortality at 500 g/ha: 100%

## COc1nc([C@H](C)NC(=O)c2cc(Cl)cc(S(=O)(=O)C3CC3)c2)n(-c2ncc(Cl)cn2)n1 [I-79]
[4]
  mortality at 100 g/ha: 100%
[5]
  mortality at 4 ppm: 100%
[8]
  mortality at 100 g/ha: 90%
  mortality at 500 g/ha: 100%
[9]
  mortality at 100 g/ha: 90%

## COc1nc([C@H](C)NC(=O)c2cc(OC(F)(F)F)cc(S(=O)(=O)C3CC3)c2)n(-c2ncc(Cl)cn2)n1 [I-91]
[6]
  pest or weed control at 100 g/ha: 100%
[4]
  mortality at 100 g/ha: 100%
[8]
  mortality at 500 g/ha: 100%
[9]
  mortality at 100 g/ha: 90%

## COc1nc([C@H](C)NC(=O)c2cc(C(F)F)cc(S(=O)(=O)C3CC3)c2)n(-c2ccc(Cl)cn2)n1 [I-94]
[6]
  pest or weed control at 100 g/ha: 100%
[4]
  mortality at 100 g/ha: 100%
[8]
  mortality at 500 g/ha: 100%
[9]
  mortality at 100 g/ha: 90%
